Test results taken from US20220340983A1, “SYSTEMS AND ASSAYS FOR IDENTIFYING PU.1 INHIBITORS” (Massachustts Institute of Technology, priority 2019, published 2022).
pIC50: −log10 of the molar value.

Experiments:
[1] = test system: PU.1 dependent gene expression; assay: RT-qPCR of mRNA levels in BV2 PU.1-Luciferase cells (validation round 3); format: cell-based, mouse; settings: 2-day treatment
Method: The Asinex1 and ChemDiv6 libraries contain molecules with unknown biological properties, but with low toxicity, high stability, and a broad structural diversity used to generate structure-activity-relationships (SAR) of the PU.1 inhibitors. […] In order to obtain the SAR, three rounds of validation were performed. In round 1, false-positive, non-specific luciferase quencher molecules were excluded using the commercially available HEK293 CMV-Luciferase line that constitutively expresses luciferase under the CMV promoter. In round 2, weak (non-significant) hits were eliminated according to degree of PU.1 inhibition in the absence of cell death. In round 3, drugs were selected that reduce PU.1-dependent gene expression with RT-qPCR.

PU.1 = target: T1, PU.1 (Mus musculus, UniProt P17433); assay: Luciferase assay (luminescence) in BV2 PU.1-Luciferase reporter cells; format: cell-based; settings: luminescence reduction in BV2 PU.1-Luciferase cells, concentration-response, Hill's equation
T1 construct: endogenous in cells; host or cells: BV2 PU.1-Luciferase (mouse microglial BV2 with a 5xLBB-luciferase reporter integrated at ROSA26)
Excerpt: PU.1 belongs to a group of transcription factors that all bind to the middle 5′-GGAA-3′ sequence. The flanking A/T rich sequence is crucial for conferring PU.1 selective binding. The flanking sequence requires unique structural properties of PU.1 and can therefore be targeted by drugs acting as allosteric inhibitors that prevent PU.1 from binding to the LBB. In order to achieve robust PU.1 binding, five tandem copies of the LBBs (5×LBB) were inserted into the luciferase promoter of the pGL4.23 plasmid. The region containing the five LBBs (5×LBB) was then subcloned into the pROSA26-1 plasmid (together with a PGKneo bpA plasmid for Neomycin/G418 resistance) that allows stable integration in chromosome 6 of the immortalized mouse microglial BV2 cell line (FIG. 2B). The stable cell line was created by selection with G418.
The BV2 PU.1-Luciferase cells (referred to as “cells” from here onward) were plated into a 384-well plate, using an automatic dispenser, 2000 cells per well in 30 μL of media composed of RPMI (Sigma-Aldrich), 10% FBS, 1% PenStrep (50 mg/mL) and 1% G418 (50 mg/mL) was plated. A robotic arm was used to transfer compounds in a 384-well format using a pin array into the plate containing the cells (here, 33 nL was transferred from a drug library containing 10 mM concentration of drugs for a final concentration of 10 μM per well). For reproducibility, each pin array with 384 compounds was added to 4 plates of cells. […] Subsequently, automatic of 30 μL of BrightGlo (Promega) was dispensed into 2 of the 4 plates, in order to lyse the cells and drive the luminescence reaction whereafter the luminescence intensity was measured by a plate reader (Perkin Elmer EnVision). The two other plates were fixed by automatically dispensing 30 μL of 10% formaldehyde with 2μL Hoechst per 1 mL formaldehyde which were left at room temperature for one hour, followed by plate reading (Acumen (TTPLabTech)). A compound transfer and treatment would be repeated if reproducibility between the luminescence plates and/or the fixed Hoechst plates was lacking. The drugs were selected and ranked according to the criteria described in FIG. 13. Luminescence values used were corrected for crosstalk. Hoechst values were total fluorescence area per well. Determination of a positive hit considered both the reduction of luminescence as well as a possible confounding reduction in cell viability. The formula used was y=(value−meanvalue)/stddev. […] Compounds were excluded if cell viability was reduced >2 standard deviations from the mean, using the same formula. The positive hits were then validated in multiple steps in order to identify true PU.1 inhibitors.
The degree of luminescence reduction of the hits was plotted with significant effective area under the curve in order to obtain an IC50.

Row | SMILES | mRNA levels Apoe [1] | mRNA levels IL1β [1] | mRNA levels Spi1 [1] | mRNA levels Trem2 [1] | mRNA levels Tyrobp [1] | pIC50 (PU.1) | mRNA levels Lucif. [1]
1 | C[C@H]1C[C@H]2[C@@H]3CCC4=CC(=O)C=C[C@]4(C)[C@@]3(F)[C@@H](O)C[C@]2(C)[C@@]1(O)C(=O)CO [Betamethasone, reference compound] | 1.615 multiples of 1× | 0.379 multiples of 1× | 1.235 multiples of 1× | 1.137 multiples of 1× | 1.079 multiples of 1× |  | 
2 | CC(=O)c1c(C)oc2ccc(N(C(=O)Oc3ccccc3)S(=O)(=O)c3ccc(C(C)(C)C)cc3)cc12 [Compound 1A2] | 0.858 multiples of 1× | 1.054 multiples of 1× | 0.915 multiples of 1× | 1.073 multiples of 1× | 1.093 multiples of 1× | 5.64 | 0.324 multiples of 1×
3 | CCOc1ccc(S(=O)(=O)Nc2ccc3c(c2)c(C(C)=O)c(C)n3S(=O)(=O)c2ccc(OCC)cc2)cc1 [Compound 1A5] | 1.200 multiples of 1× | 0.707 multiples of 1× | 0.982 multiples of 1× | 1.085 multiples of 1× | 1.117 multiples of 1× | 5.53 | 0.371 multiples of 1×
4 | CC(C)c1ccc(C2Sc3ccccc3NC3=C2C(=O)c2ccccc23)cc1 (centres unmarked) [Compound 1B5] | 0.797 multiples of 1× | 0.843 multiples of 1× | 0.831 multiples of 1× | 0.775 multiples of 1× | 0.697 multiples of 1× | 5.64 | 0.491 multiples of 1×
5 | Cc1ccc(-c2nc3cc(C(C)C)ccc3o2)cc1NC(=O)c1cc([N+](=O)[O-])ccc1N1CCOCC1 [Compound 1C4] | 0.883 multiples of 1× | 0.813 multiples of 1× | 1.142 multiples of 1× | 0.928 multiples of 1× | 1.197 multiples of 1× | 5.61 | 0.290 multiples of 1×
6 | CCOC(=O)c1ccc(NS(=O)(=O)c2cc(Br)cc3c2N(C(C)=O)C(C)C3)cc1 (centres unmarked) [Compound 1D3] | 0.928 multiples of 1× | 1.144 multiples of 1× | 0.965 multiples of 1× | 1.031 multiples of 1× | 1.102 multiples of 1× | 5.76 | 0.347 multiples of 1×
7 | CCn1c(=O)c2cc(C(=O)Nc3cc(OC)c(OC)c(OC)c3)sc2c2ccccc21 [Compound 1G9] | 1.217 multiples of 1× | 0.582 multiples of 1× | 0.989 multiples of 1× | 0.713 multiples of 1× | 1.053 multiples of 1× | 5.64 | 0.485 multiples of 1×
8 | CCOC(=O)c1oc2ccc(S(=O)(=O)n3nc(-c4ccccc4OC)cc3N)cc2c1C [Compound 1H7] | 0.908 multiples of 1× | 1.017 multiples of 1× | 1.022 multiples of 1× | 1.100 multiples of 1× | 1.011 multiples of 1× | 5.63 | 0.524 multiples of 1×
9 | CCc1ccc(NC(=O)Cn2c(=O)oc3cc(S(=O)(=O)N4CCCCCC4)ccc32)cc1 [Compound 2A7] | 0.886 multiples of 1× | 0.435 multiples of 1× | 0.739 multiples of 1× | 0.942 multiples of 1× | 0.928 multiples of 1× | 5.44 | 0.328 multiples of 1×
10 | CC(C)c1ccc(NC(=O)Cn2c(=O)oc3cc(S(=O)(=O)N4CCCC4)ccc32)cc1 [Compound 2A9] | 0.988 multiples of 1× | 1.048 multiples of 1× | 1.073 multiples of 1× | 0.958 multiples of 1× | 1.059 multiples of 1× | 5.59 | 0.391 multiples of 1×
11 | CCc1ccc(CNC(=O)C2CCCN(c3nn4cc(-c5ccc(F)cc5)nc4s3)C2)cc1 (centres unmarked) [Compound 2C2] | 1.035 multiples of 1× | 0.954 multiples of 1× | 1.034 multiples of 1× | 1.031 multiples of 1× | 1.130 multiples of 1× | 6.06 | 0.504 multiples of 1×
12 | COc1cc(NS(=O)(=O)c2ccc3c(c2)CC(C)N3C(=O)C2CCC2)cc(OC)c1OC (centres unmarked) [Compound 2C3] | 1.133 multiples of 1× | 1.043 multiples of 1× | 0.946 multiples of 1× | 1.179 multiples of 1× | 1.127 multiples of 1× | 6.47 | 0.430 multiples of 1×
13 | CC(C)(C)OC(=O)N1CCC(c2c(C(=O)Nc3ccc4c(c3)OCCO4)cnn2-c2ccccc2)CC1 [Compound 2C12] | 0.731 multiples of 1× | 0.486 multiples of 1× | 0.736 multiples of 1× | 0.752 multiples of 1× | 0.713 multiples of 1× | 5.53 | 0.597 multiples of 1×
14 | Cc1c(Cl)cccc1-n1ncc(C(=O)Nc2ccc3c(c2)OCCO3)c1C1CCN(C(=O)OC(C)(C)C)CC1 [Compound 2D3] | 0.980 multiples of 1× | 0.960 multiples of 1× | 0.922 multiples of 1× | 0.987 multiples of 1× | 0.950 multiples of 1× | 5.58 | 0.480 multiples of 1×
15 | CCCCN(C)C(=O)C1CCCN(c2ncnc3onc(C)c23)C1 (centres unmarked) [Compound 2D5] | 1.400 multiples of 1× | 0.287 multiples of 1× | 1.015 multiples of 1× | 1.852 multiples of 1× | 2.257 multiples of 1× | 5.58 | 0.359 multiples of 1×
16 | CCOC(=O)Cn1c(=O)n(C2CCCCC2)c2nc(-c3cccc(F)c3)nc(C(N)=O)c21 [Compound 2E4] | 0.841 multiples of 1× | 1.077 multiples of 1× | 1.377 multiples of 1× | 0.806 multiples of 1× | 1.141 multiples of 1× | 6.87 | 0.404 multiples of 1×
17 | C[C@@H]1C[C@H]2[C@@H]3CCC4=CC(=O)C=C[C@]4(C)[C@@]3(F)[C@@H](O)C[C@]2(C)[C@@]1(O)C(=O)CO [Dexamethasone, reference compound] | 1.325 multiples of 1× | 1.041 multiples of 1× | 0.955 multiples of 1× | 0.751 multiples of 1× | 1.010 multiples of 1× |  | 0.373 multiples of 1×
18 | C[C@]12CCC(=O)C=C1CC[C@H]1[C@@H]3CC[C@](O)(C(=O)CO)[C@@]3(C)C[C@H](O)[C@@]12F [Fludrocortisone, reference compound] | 1.493 multiples of 1× | 1.764 multiples of 1× | 0.900 multiples of 1× | 0.895 multiples of 1× | 1.082 multiples of 1× |  | 1.171 multiples of 1×
